# Data published in article PMC5642494 (Oncotarget, 2017).
# Like-named read-outs stand apart in the source and are kept apart here.
# Experiments:
# MCF7 cells = experiment: Annexin V/PI flow cytometry, MCF7; format: cell-based, human; settings: 3 DT (untreated 11.1%)
# Protocol: Annexin V/PI staining was performed following the vendor’s specifications in MCF7 and MDA-MB-361 cells. […] Raw data were analyzed with FlowJo X software. Events were gated for debris exclusion and singlets selection. A minimum of 10,000 cells were analyzed per sample.
# EFM-19 cells [1] = experiment: PI high content imaging of G1 arrest and cell proliferation, EFM-19; format: cell-based; settings: Homo sapiens, at least 2 DT
# Protocol: Relative IC50/EC50 values were determined by curve fitting to a four parameter logistic equation: Y = bottom + ((top-bottom)/ (1+exp(HillSlope*(X – LnIC50)), where X is the natural log of dose/concentration, Y is response, decreasing as X increases, top and bottom are plateaus in the same units as Y, lnIC50 is the natural log of potency, in the same log units as X, and HillSlope measures the steepness of the curve. Data were plotted using GraphPad Prism. […]
# Preclinical characterization of abemaciclib in hormone receptor […]
# METHODS High content imaging cell-based assays for monitoring phosphorylation of Rb (ser780), G1 arrest and […]
# ATP at 20°C by a secondary goat anti-mouse IgG-Alexa Fluor 488 in a 96-well plate filtration assay format. […] Plates were read in an kinase buffer containing 68 mM Hepes at pH 7.5, 6.67 mM Acumen Explorer eX3 (TTP Labtech). […] 10µL of CDK6/cyclin corresponding to 500-530 nm and the percentage of D3 enzyme complex (Millipore 14-519, #D13BP009NA) cells with pRb signal relative to the total PI stained (1 nM final concentration in the assay) was added onto subpopulation was calculated by the instrument’s software a mix of substrate and test compound. […]
# (EDTA) was used to determine the level of background evaluated by measuring PI signal using high content 33P in the absence of enzyme activity. […]
# EFM-19 cells [2] = experiment: Ki-67 protein expression, EFM-19; format: cell-based; settings: Homo sapiens, 2 DT, read-out: EC50 Ki-67 levels
# Protocol: Relative IC50/EC50 values were determined by curve fitting to a four parameter logistic equation: Y = bottom + ((top-bottom)/ (1+exp(HillSlope*(X – LnIC50)), where X is the natural log of dose/concentration, Y is response, decreasing as X increases, top and bottom are plateaus in the same units as Y, lnIC50 is the natural log of potency, in the same log units as X, and HillSlope measures the steepness of the curve. Data were plotted using GraphPad Prism.
# After 72 hours, cells were stained with an anti-FOXM1 antibody and a secondary goat anti-rabbit IgG, Alexa Fluor® 488 conjugate; nuclei were stained with propidium iodide (PI). Alternatively, for assessment of Ki-67 levels, cells were treated for 2 DT and then stained with Ki-67 and a secondary goat anti-rabbit IgG, Alexa Fluor® 488 conjugate. Plates were read in an Acumen Explorer Ex3 (TTP Labtech) using Cellista software and the percentages of FOXM1 positive and Ki-67 positive cells were calculated over the background signal. Data were normalized in Excel using the mean value obtained from treatment with 2 µM BEZ235 as the minimum and the mean value obtained from treatment with 0.2% DMSO as the maximum.
structure (smiles),measurement,setting,value
"CCN1CCN(Cc2ccc(Nc3ncc(F)c(-c4cc(F)c5nc(C)n(C(C)C)c5c4)n3)nc2)CC1 [abemaciclib, Abemaciclib]",cells positive for annexin V,MCF7 cells; 0.5 µM,41.4%
same,cells positive for annexin V,MCF7 cells; 2 µM,66.7%
same,IC50,"EFM-19 cells [1]; n = 2, read-out: IC50 2n (G1 arrest)",32 ± 21 nM
same,IC50,"EFM-19 cells [1]; n = 2, read-out: IC50 Cell number",19 ± 4 nM
same,EC50,EFM-19 cells [2],16.7 nM
